Measured values from patent US12115208B2, “Small-molecule adjuvants for antibiotics to address antibiotic resistance” (HIGH POINT UNIVERSITY, priority 2017, dated 2024).
Read-outs that look alike come from different tables or passages of the source.

Experiments:
[1] = test system: S. aureus 43300 (MRSA); assay: Antibiotic repotentiation (antibiotic MIC with/without compound); type: cell-based, Staphylococcus aureus; details: S. aureus 43300 (MRSA); for Fold Reduction: oxacillin MIC
Protocol: The overnight culture was diluted into fresh CAMHB to a concentration of 5×10^5 CFU/ml. […] On the same plate, a standard microdilution MIC with the tested antibiotics and no added compound was also performed to compare the antibiotic MIC in the presence and absence of compound. […] Fold reductions were calculated by dividing the MIC of the antibiotic without compound by the MIC of the antibiotic in the presence of compound.
(§1) The compounds were then analyzed for antibiotic repotentiation activity. […] The tested strains included USA300, which is a common and particularly virulent strain of community-acquired MRSA.

[2] = test system: S. epidermidis ATCC 49461 biofilm; assay: Biofilm inhibition, crystal violet assay; type: cell-based, Staphylococcus epidermidis; details: read-out: Inhibition of biofilm formation IC50
Protocol: A standard static crystal violet assay was used to quantify biofilm inhibition.^45 Cultures of S. aureus or S. epidermidis were grown overnight in TSBG (tryptic soy broth with 5% glucose) at 37° C. with shaking. These cultures were used to inoculate fresh TSBG to a calculated optical density of 0.01 at 600 nm (OD600). […] Untreated aliquots were used as a positive control and water served as a negative control. 100 μl of these suspensions were added to the wells of a 96-well polyvinylchloride microtiter plate. […] After incubation, media was discarded and the plates were washed with water to remove non-adherent cells. Adherent biofilms were stained with 110 μl of crystal violet (0.1% in water) and incubated at room temperature for thirty minutes. The crystal violet staining solution was discarded and plates were washed with water to remove excess stain. The resulting stained biofilms were solubilized with 200 μL of 95% ethanol for 10 minutes. 125 μl of the ethanol solutions were transferred to a clear polystyrene microtiter plate for evaluation. Absorbance at 540 nm was recorded using a BioTek Synergy H1 microplate reader. The absorbance of the negative control lanes was subtracted from the experimental values to account for background staining. Percent inhibition was calculated by comparison of the absorbance values of control versus treated wells under identical conditions.

[3] = test system: S. aureus ATCC 43300 (MRSA); assay: Minimum inhibitory concentration, broth microdilution; type: cell-based, Staphylococcus aureus; details: compound alone; S. aureus ATCC 43300 (MRSA); CAMHB, 18 h; read-out: MIC
Protocol: as §1

[4] = Staphylococcus epidermidis, ATCC49461, 30 h

Compound	Oxacillin MIC ([1]; +50 μM compound) [µg/mL]	Fold Reduction ([1]; +50 μM compound)	IC50 ([2]; 30 h) [µM]	MIC [3] [µM]	further results
Cc1ccnc2c1NC(=O)c1cccnc1N2C1CC1 [Compound I-1]	16	1	–	–	–
NC(=O)N1c2ccccc2C=Cc2ccccc21 [Compound I-2]	16	1	–	–	–
O=c1c2ccccc2ccc2ccccc12 [Compound I-3]	16	1	–	–	–
C1=Cc2ccccc2Nc2ccccc21 [Compound I-4]	16	1	–	–	–
O=C1CCCNc2cc(Cl)ccc21 [Compound I-6]	16	1	–	–	–
c1ccc(-c2ccccn2)nc1 [Compound V-1]	–	–	> 100	>2000	Oxacillin MIC ([1]; +100 μM compound): 32 µg/mL; Fold Reduction ([1]; +100 μM compound): 1
c1cnc2ccc3ncccc3c2c1 [Compound V-2]	–	–	84.6	1000	Oxacillin MIC ([1]; +100 μM compound): 32 µg/mL; Fold Reduction ([1]; +100 μM compound): 1
Brc1cc2ccccc2c2ccccc12 [Compound V-3]	–	–	> 100	>250	Oxacillin MIC ([1]; +75 μM compound): 8 µg/mL; Fold Reduction ([1]; +75 μM compound): 4
c1cnc2c(c1)ccc1cccnc12 [Compound V-4]	–	–	51.8	125	Oxacillin MIC ([1]; +31.25 μM compound): 8 µg/mL; Fold Reduction ([1]; +31.25 μM compound): 4
Clc1ccc2ccc3cccnc3c2n1 [Compound V-5]	–	–	38.5	1000	Oxacillin MIC ([1]; +100 μM compound): 32 µg/mL; Fold Reduction ([1]; +100 μM compound): 1
O=[N+]([O-])c1cc2cccnc2c2ncccc12 [Compound V-7]	–	–	> 100	31.25	Oxacillin MIC ([1]; +7.8125 μM compound): 16 µg/mL; Fold Reduction ([1]; +7.8125 μM compound): 2
Cc1cc2cccnc2c2ncccc12 [Compound V-8]	–	–	78.9	125	Oxacillin MIC ([1]; +31.25 μM compound): 2 µg/mL; Fold Reduction ([1]; +31.25 μM compound): 16
Cc1ccc2ccc3ccc(C)nc3c2n1 [Compound V-9]	–	–	< 5	125	Oxacillin MIC ([1]; +31.25 μM compound): 32 µg/mL; Fold Reduction ([1]; +31.25 μM compound): 1
Clc1ccnc2c1ccc1c(Cl)ccnc12 [Compound V-10]	–	–	27.3	>500	Oxacillin MIC ([1]; +75 μM compound): 32 µg/mL; Fold Reduction ([1]; +75 μM compound): 1
Oc1ccnc2c1ccc1c(O)ccnc12 [Compound V-11]	–	–	> 100	250	Oxacillin MIC ([1]; +62.5 μM compound): 32 µg/mL; Fold Reduction ([1]; +62.5 μM compound): 1
COc1ccnc2c1ccc1c(OC)ccnc12 [Compound V-12]	–	–	> 100	31.25	Oxacillin MIC ([1]; +7.8 μM compound): 4 µg/mL; Fold Reduction ([1]; +7.8 μM compound): 8

Compound	Oxacillin MIC ([1]; +50 μM compound) [µg/mL]	Fold Reduction ([1]; +50 μM compound)	IC50 ([2]; 30 h) [µM]	MIC [3] [µM]	further results
c1ccc(-c2ccnc3c2ccc2c(-c4ccccc4)ccnc23)cc1 [Compound V-13]	–	–	> 100	6.25	Oxacillin MIC ([1]; +[…] compound): 16 µg/mL
Cc1cnc2c(ccc3c(C)c(C)cnc32)c1C [Compound V-14]	–	–	> 100	3.125	Oxacillin MIC ([1]; +0.78 μM compound): 32 µg/mL; Fold Reduction ([1]; +0.78 μM compound): 1
CCN1c2ccccc2CCc2ccc(Cl)cc21 [II-2]	32	1	–	–	–
CCCCCN1c2ccccc2CCc2ccc(Cl)cc21 [II-3]	16	2	–	–	–
CCCCCCCCN1c2ccccc2CCc2ccc(Cl)cc21 [II-4]	32	1	–	–	–
C=CCN1c2ccccc2CCc2ccc(Cl)cc21 [II-5]	8	4	–	–	–
Clc1ccc2c(c1)N(Cc1ccccc1)c1ccccc1CC2 [II-6]	32	1	–	–	–
NC1=Nc2ccccc2Oc2ccc(Cl)cc21 [II-7]	32	1	–	–	–
CCCCCNC1=Nc2ccccc2Oc2ccc(Cl)cc21 [II-8]	32	1	–	–	–
CCCCCCCCNC1=Nc2ccccc2Oc2ccc(Cl)cc21 [II-9]	32	1	–	–	–
Clc1ccc2c(c1)C(NC1CCCCC1)=Nc1ccccc1O2 [II-10]	32	1	–	–	–
CCCCN1CCC(=C2c3ccc(Cl)cc3CCc3cccnc32)CC1 [III-1, 11-(1-butylpiperidin-4-ylidene)-8-chloro-6,11-dihydro-5H-benzo[5,6]cyclohepta[1,2-b]pyridine]	–	1	–	–	IC50 [2, 4]: > 80 µM
CCCCCN1CCC(=C2c3ccc(Cl)cc3CCc3cccnc32)CC1 [III-2, 8-chloro-11-(1-pentylpiperidin-4-ylidene)-6,11-dihydro-5H-benzo[5,6]cyclohepta[1,2-b]pyridine]	–	32	–	–	IC50 [2, 4]: 26.9 µM
CCCCCCCCCN1CCC(=C2c3ccc(Cl)cc3CCc3cccnc32)CC1 [III-3, 8-chloro-11-(1-nonylpiperidin-4-ylidene)-6,11-dihydro-5H-benzo[5,6]cyclohepta[1,2-b]pyridine]	–	1	–	–	IC50 [2, 4]: > 80 µM
Clc1ccc2c(c1)CCc1cccnc1C2=C1CCN(Cc2ccccc2)CC1 [III-4]	–	1	–	–	IC50 [2, 4]: > 50 µM
CC(C)c1ccc(CN2CCC(=C3c4ccc(Cl)cc4CCc4cccnc43)CC2)cc1 [III-5, 8-chloro-11-(1-(4-isopropylbenzyl)piperidin-4-ylidene)-6,11-dihydro-5H-benzo[5,6]cyclohepta[1,2-b]pyridine]	–	16	–	–	IC50 [2, 4]: 62.2 µM
